# In article PMC2819846 (Mutation research, 2008):
# Tests used:
# [1] = system: Salmonella TA98; assay: Salmonella plate-incorporation mutagenicity assay, strain TA98, with S9 mix; type: cell-based
# [2] = system: Salmonella TA100; assay: Salmonella plate-incorporation mutagenicity assay, strain TA100; type: cell-based
# [3] = system: Salmonella TA104; assay: Salmonella plate-incorporation mutagenicity assay, strain TA104, with S9 mix; type: cell-based
# [4] = system: strain TA100; type: cell-based, Salmonella; conditions: TA100 liquid-suspension, 5 µg/ml
# [5] = system: DNA from Salmonella TA100; assay: Stable DNA adducts by 32P-postlabeling in DNA of treated TA100; type: cell-based; conditions: TA100, 5 µg/ml; DMSO 0.024 ± 0.000
# [6] = system: DNA from Salmonella TA100; assay: Abasic sites by aldehydic-site assay in DNA of treated TA100; type: cell-based; conditions: TA100, 5 µg/ml; DMSO 5.9 ± 0.33
compound,measurement,setting,value
"O[C@@H]1C=Cc2c(ccc3ccc4ccsc4c23)[C@H]1O (racemic) [P[4,3-b]T 8,9-diol, (±)-trans-8,9-Dihydrophenanthro[4,3-b]thiophene 8,9 diol-]",Rev/plate,"[1]; TA98 +S9, Test 1, 2 µg/plate, zero-dose 33/40/39",73 rev/plate
same,Rev/plate,"[1]; TA98 +S9, Test 1, 5 µg/plate, zero-dose 33/40/39",116 rev/plate
same,Rev/plate,"[1]; TA98 +S9, Test 1, 10 µg/plate, zero-dose 33/40/39",140 rev/plate
same,Rev/plate,"[1]; TA98 +S9, Test 1, 20 µg/plate, zero-dose 33/40/39",229 rev/plate
same,Rev/plate,"[1]; TA98 +S9, Test 1, 40 µg/plate, zero-dose 33/40/39",435 rev/plate
same,Rev/plate,"[1]; TA98 +S9, Test 1, 80 µg/plate, zero-dose 33/40/39",578 rev/plate
same,Rev/plate,"[1]; TA98 +S9, Test 2, 10 µg/plate, zero-dose 43/41/30",167/151
same,Rev/plate,"[1]; TA98 +S9, Test 2, 20 µg/plate, zero-dose 43/41/30",127/225
same,Rev/plate,"[1]; TA98 +S9, Test 2, 40 µg/plate, zero-dose 43/41/30",383/448
same,Rev/plate,"[1]; TA98 +S9, Test 2, 80 µg/plate, zero-dose 43/41/30",479/475
same,Rev/plate,"[1]; TA98 +S9, Test 3, 10 µg/plate, zero-dose 49/50/50",251/249
same,Rev/plate,"[1]; TA98 +S9, Test 3, 20 µg/plate, zero-dose 49/50/50",298/321
same,Rev/plate,"[1]; TA98 +S9, Test 3, 40 µg/plate, zero-dose 49/50/50",561/624
same,Rev/plate,"[1]; TA98 +S9, Test 3, 80 µg/plate, zero-dose 49/50/50",828/725
same,"Mutagenic potency, Revertants/µg ± S.E., TA98","[1]; plate-incorporation, +S9",11.0 ± 1.6 rev/µg
same,Mutagenicity call TA98,"[1]; plate-incorporation, +S9","(+) (Called mutagenic (+) based on showing reproducible, dose-related increases in rev/plate that reached or exceeded 2-fold relative to zero-dose controls)"
same,Rev/plate,"[2]; TA100 +S9, Test 1, 2 µg/plate, zero-dose 99/110/110",660 rev/plate
same,Rev/plate,"[2]; TA100 +S9, Test 1, 5 µg/plate, zero-dose 99/110/110",938 rev/plate
same,Rev/plate,"[2]; TA100 +S9, Test 1, 10 µg/plate, zero-dose 99/110/110",1120 rev/plate
same,Rev/plate,"[2]; TA100 +S9, Test 1, 20 µg/plate, zero-dose 99/110/110",1175 rev/plate
same,Rev/plate,"[2]; TA100 +S9, Test 1, 40 µg/plate, zero-dose 99/110/110",1027 rev/plate
same,Rev/plate,"[2]; TA100 +S9, Test 1, 80 µg/plate, zero-dose 99/110/110",673 rev/plate
same,Rev/plate,"[2]; TA100 +S9, Test 2, 0.5 µg/plate, zero-dose 84/78/80",205/219
same,Rev/plate,"[2]; TA100 +S9, Test 2, 1 µg/plate, zero-dose 84/78/80",318/270
same,Rev/plate,"[2]; TA100 +S9, Test 2, 2.5 µg/plate, zero-dose 84/78/80",703/655
same,Rev/plate,"[2]; TA100 +S9, Test 2, 5 µg/plate, zero-dose 84/78/80",857/907
same,Rev/plate,"[2]; TA100 +S9, Test 3, 0.5 µg/plate, zero-dose 127/118/125",412/353
same,Rev/plate,"[2]; TA100 +S9, Test 3, 1 µg/plate, zero-dose 127/118/125",610/511
same,Rev/plate,"[2]; TA100 +S9, Test 3, 2.5 µg/plate, zero-dose 127/118/125",951/868
same,Rev/plate,"[2]; TA100 +S9, Test 3, 5 µg/plate, zero-dose 127/118/125",985/1059
same,Rev/plate,"[2]; TA100 +S9, Test 4, 0.5 µg/plate, zero-dose 112/140/115",305/312
same,Rev/plate,"[2]; TA100 +S9, Test 4, 1 µg/plate, zero-dose 112/140/115",487/469
same,Rev/plate,"[2]; TA100 +S9, Test 4, 2.5 µg/plate, zero-dose 112/140/115",976/966
same,Rev/plate,"[2]; TA100 +S9, Test 4, 5 µg/plate, zero-dose 112/140/115",1368/1275
same,Rev/plate,"[2]; TA100 +S9, Test 5, 0.5 µg/plate, zero-dose 102/119/99",269/235
same,Rev/plate,"[2]; TA100 +S9, Test 5, 1 µg/plate, zero-dose 102/119/99",430/375
same,Rev/plate,"[2]; TA100 +S9, Test 5, 2.5 µg/plate, zero-dose 102/119/99",865/878
same,Rev/plate,"[2]; TA100 +S9, Test 5, 5 µg/plate, zero-dose 102/119/99",1150/1115
same,"Times more mutagenic for base-substitution mutation than the parent P[4,3-b]T","[2]; base-substitution strains (TA100, TA104), Table 2",10–20 times
same,"Mutagenic potency, Revertants/µg ± S.E., TA100","[2]; plate-incorporation, +S9",274 ± 37 rev/µg
same,Mutagenicity call TA100,"[2]; plate-incorporation, +S9","(+) (Called mutagenic (+) based on showing reproducible, dose-related increases in rev/plate that reached or exceeded 2-fold relative to zero-dose controls)"
same,Rev/plate,"[3]; TA104 +S9, Test 1, 0.5 µg/plate, zero-dose 379/400/370",700/693
same,Rev/plate,"[3]; TA104 +S9, Test 1, 1 µg/plate, zero-dose 379/400/370",1035/1060
same,Rev/plate,"[3]; TA104 +S9, Test 1, 2.5 µg/plate, zero-dose 379/400/370",1698/1615
same,Rev/plate,"[3]; TA104 +S9, Test 1, 5 µg/plate, zero-dose 379/400/370",1986/1995
same,Rev/plate,"[3]; TA104 +S9, Test 3, 0.5 µg/plate, zero-dose 402/395/336",824/707
same,Rev/plate,"[3]; TA104 +S9, Test 3, 1 µg/plate, zero-dose 402/395/336",1210/1178
same,Rev/plate,"[3]; TA104 +S9, Test 3, 2.5 µg/plate, zero-dose 402/395/336",1827/1822
same,Rev/plate,"[3]; TA104 +S9, Test 3, 5 µg/plate, zero-dose 402/395/336",1980/1970
same,"Mutagenic potency, Revertants/µg ± S.E., TA104","[3]; plate-incorporation, +S9",577 ± 63 rev/µg
same,Mutagenicity call TA104,"[3]; plate-incorporation, +S9","(+) (Called mutagenic (+) based on showing reproducible, dose-related increases in rev/plate that reached or exceeded 2-fold relative to zero-dose controls)"
same,Fold increase in mutant frequency relative to DMSO-treated cells,[4],6.1 fold
same,Rev/10^6 survivors,[4]; DMSO 0.8,4.9 Rev/10^6 survivors
same,Percent survival,[4]; DMSO 100,47%
same,Stable adducts/10^8 nucleotides ± S.E,[5],0.650 ± 0.045 adducts/10^8 nucleotides
same,Abasic sites/10^5 nucleotides ± S.E,[6],5.5 ± 0.16 sites/10^5 nucleotides
